Entries after “also recorded” stand apart in the source; their conditions may differ.
How the values were obtained:
[1] = test system: SCC13 cells; experiment: SCC13 cells grown in the presence of 17-DMAG in vitro; type: cell-based, human; conditions: range of concentrations
[2] = test system: SCC25 tongue xenograft; experiment: SCC25 tongue xenograft, 17-DMAG treatment; type: in vivo, mouse; conditions: weekly i.p. injections, compared to vehicle control
Procedure: (§1) All mice used were NOD.Cg-Prkdc^scid I12rg^tm1Wj1/SzJ or NOD/SCID Gamma (NSG) as they are commonly known. Mice were originally purchased from the Jackson Laboratories (Maine, USA) and then bred in-house. Experiments were subject to Cancer Research UK ethical review and were performed under the terms of a U.K. Government Home Office license. Tongue xenografts were carried out using inhalation anaesthesia and injection into the mucosa with a 30 g needle and 1 ml syringe. Mice were grafted using inhalation anaesthesia. An area of skin on the back of each mouse was shaved and cleaned with a betadine solution. Using a 6 mm punch biopsy punch a full thickness wound was created, into which the silicone chamber was inserted and stapled in place. A preparation of cells could then be injected into the chamber. After one week the top of the silicone chamber was cut off to allow the tumour to develop exposed to the normal skin-air interface. After a further week the whole silicone chamber was carefully removed. Mice were scanned with the Xenogen IVIS following an i.p. injection of luciferin (10 μl/g).
Mice were tongue grafted with 1×10E5 SCC25 cells. After one week an initial measurement was made with the Xenogen IVIS. Following this, each mouse was i.p injected with either 17-DMAG or vehicle control. […]

[3] = test system: normal human keratinocytes; experiment: Induced differentiation of normal human keratinocytes; type: cell-based
From the text: To determine the expression of FRMD4A mRNA in normal human skin we carried out in-situ hybridisations on normal human foreskin. […] Using the Zeiss PALM Laser Capture Microdissection system, samples were collected separately from the basal and granular layers of human abdomen skin sections. […] Levels of FRMD4A were contrary to this, with high levels in the less differentiated basal layer, which dropped to almost nothing in the more differentiated granular layer (FIG. 1B). Similarly, normal human keratinocytes grown in serum free culture were induced to differentiate, by the addition of AG1478 and BMP2/7 (FIG. 1C). Differentiation of the keratinocytes was confirmed by increased levels of transglutaminase in the presence of these agents alone compared to treatment with vehicle alone. Addition of both together led to expression of even higher levels of the differentiation marker TG-1. FRMD4A levels were high in the vehicle treated sample, but became barely detectable in the differentiated samples (FIG. 1C) showing that FRMD4A is associated with less differentiated cell types.

[4] = test system: SCC cells; experiment: Incucyte timelapse growth of SCC cells (cell line not specified); type: cell-based, human; conditions: SCCs cultured on HA coated plates
Procedure: For Incucyte assays, 1000 cells were plated in triplicate for each condition, in a 48-well plate. Plates were imaged every 3 hours for 7 days.
Having established that FRMD4A has a functional role in SCC proliferation and tumour growth and that it is also modulating the differentiation of such cells, in part perhaps via cancer stem cells and is a key mediator of the Hippo pathway control in SCCs, the present inventors recognised that FRMD4A represents a potential target for therapeutic options. Currently many targeted antibody therapies are in clinical use or undergoing trials to determine their efficacy in the treatment of several malignant and non-malignant diseases. To test if any of the generated antibodies developed against FRMD4A may have a blocking effect on SCCs, the antibodies were added to cells grown in the Incucyte timelapse imaging system.

[5] = test system: SCC13 cells; experiment: Colony forming assay, SCC13; type: cell-based, human; conditions: plates coated with HA
Procedure: For colony forming assays, 100 cells were plated in triplicate in 10 cm plates. After 14 days, cultures were fixed and stained with 1% rhodamine B and 1% Nile blue (Acros Organic). Colony-forming efficiency was defined as the percentage of plated cells that formed a colony of three or more cells.

[6] = test system: CD44 and FRMD4A staining; experiment: Immunostaining of cells grown on HA coated coverslips; type: cell-based, human
[7] = test system: SCC13 back skin xenograft; experiment: SCC13 back skin xenograft, hyaluronic acid treatment; type: in vivo, mouse
Procedure: as §1
Mice were grafted into the back skin with 1×10E6 SCC13 cells.
After one week an initial measurement was made with the Xenogen IVIS. Following this, each mouse was directly injected into the tumour with 200 μl of 0.1% HA. […]

[8] = injection in the skin and knee joint; cited from earlier work

For `CO[C@H]1/C=C\C=C(/C)C(=O)NC2=CC(=O)C(NCCN(C)C)=C(C[C@@H](C)C[C@H](OC)[C@H](O)[C@@H](C)/C=C(\C)[C@@H]1OC(N)=O)C2=O` [17-DMAG, 17-Dimethylaminoethylamino-17-demethoxygeldanamycin], the “killing of cells in vitro” value [1] was “readily killed over a range of concentrations; also recorded: dramatic effect” and the progression of tumours [2] was “slower progression of their tumours”.
For `COc1cc2ncnc(Nc3cccc(Cl)c3)c2cc1OC` [AG1478], the FRMD4A levels [3] was “downregulation of FRMD4A levels” and the TG1 levels ([3]; differentiation marker) was “upregulation of TG1 levels”.
In the case of hyaluronic acid [HA], the overall growth rate [4] is reported as “decrease in growth rate; also recorded: reduces the growth of SCCs”, the average colony area [5] is reported as “reduction in average colony area” and the “average colony staining intensity” value [5] is reported as “reduction”. For the same compound, the colony forming efficiency [5] was “reduction in colony forming efficiency”, the CD44 staining [6] was “increase in CD44 staining” and the “nuclear FRMD4A staining” value [6] was “loss of nuclear FRMD4A staining”. For the same compound, the survival ([7]; HA injection of xenograft tumours) was “increased survival”, the tumour growth rate ([7]; weekly intra-tumour injection, compared with PBS) was “reduced growth rate; also recorded: reduced the growth of the tumour” and the toxic effects [8] was “no apparent toxic effects”.
